The source of these data is US20070099877A1, “N-aryl-thienopyrimidin-4-amines and analogs as activators of caspases and inducers of apoptosis and the use thereof” (Cytovia, Inc., priority 2005, published 2007).

SMILES strings stand for the structures. Where a name gives a salt, the structure may show the parent alone.

The first experiment concerns human breast cancer cell line T-47D. The experiment can be described thus: Caspase cascade activation (DEVD-R110 fluorogenic substrate) in T-47D cells. Conditions: Homo sapiens, T47D, 24 h, T47D cells, 24 h; read-out: Caspase activation Potency EC50 T47D (24 h). Type of experiment: cell-based. The protocol: (§1) Human breast cancer cell line T-47D, human lung cancer cell line H1299, human hepatocellular carcinoma cell line SNU398, human colon carcinoma cell line HCT116 were grown according to media component mixtures designated by American Type Culture Collection+10% FCS (Invitrogen Corporation), in a 5% CO2-95% humidity incubator at 37° C. T-47D and H1299 cells were maintained at a cell density between 50 and 80% confluency at a cell density of 0.1 to 0.6×10^6 cells/mL. Cells were harvested at 600×g and resuspended at 0.65×10^6 cells/mL into appropriate media+10% FCS. An aliquot of 22.5 μL of cells was added to a well of a 384-well microtiter plate containing 2.5 μL of a 10% DMSO in RPMI-1640 media solution containing 0.16 to 100 μM of N-(2,5-dimethoxyphenyl)-2-methylthieno[3,2-d]pyrimidin-4-amine or other test compound (0.016 to 10 μM final). An aliquot of 22.5 μL of cells was added to a well of a 384-well microtiter plate containing 2.5 μL of a 10% DMSO in RPMI-1640 media solution without test compound as the control sample. The samples were mixed by agitation and then incubated at 37° C. for 24 h or 48 h in a 5% CO2-95% humidity incubator. After incubation, the samples were removed from the incubator and 25 μL of a solution containing 14 μM of N-(Ac-DEVD)-N′-ethoxycarbonyl-R110 (SEQ ID NO.:1) fluorogenic substrate (Cytovia, Inc.; WO99/18856), 20% sucrose (Sigma), 20 mM DTT (Sigma), 200 mM NaCl (Sigma), 40 mM Na PIPES buffer pH 7.2 (Sigma), and 500 μg/mL lysolecithin (Calbiochem) was added. The samples were mixed by agitation and incubated at room temperature. Using a fluorescent plate reader (Model SPECTRAfluor Plus, Tecan), an initial reading (T=0) was made approximately 1-2 min after addition of the substrate solution, employing excitation at 485 nm and emission at 530 nm, to determine the background fluorescence of the control sample. After the 3 h incubation, the samples were read for fluorescence as above (T=3 h).
(§2) The Relative Fluorescence Unit values (RFU) were used to calculate the sample readings as follows: RFU(T=3h)−Control RFU(T=O)=Net RFU(T=3h)
(§3) The activity of caspase cascade activation was determined by the ratio of the net RFU value for N-(2,5-dimethoxyphenyl)-2-methylthieno[3,2-d]pyrimidin-4-amine or other test compound to that of control samples. The EC50 (nM) was determined by a sigmoidal dose-response calculation (Prism 3.0, GraphPad Software Inc.).
For `COc1ccc(C(C)(C)C)cc1Nc1ncnc2ccsc12` [Example 40, N-(5-tert-Butyl-2-methoxyphenyl)thieno[3,2-d]pyrimidin-4-amine], the EC50 (usually the concentration needed to bring the measured effect to its halfway point) worked out at 5.24 µM.
Take `COc1ccc(O)c(Nc2ncnc3ccsc23)c1` [Example 42, N-(2-Hydroxy-5-methoxyphenyl)thieno[3,2-d]pyrimidin-4-amine]: the EC50 was greater than 10 µM.
Turning to `CCOc1ccc(OCC)c(Nc2ncnc3ccsc23)c1` [Example 36, N-(2,5-Diethoxyphenyl)thieno[3,2-d]pyrimidin-4-amine], the EC50 is greater than 10 µM.
Turning to `COc1ccc(OC)c(Nc2ncnc3sc(-c4ccccc4)c(C)c23)c1` [Example 16, N-(2,5-Dimethoxyphenyl)-5-methyl-6-phenylthieno[2,3-d]pyrimidin-4-amine hydrochloride], the half-maximal effective concentration (EC50) was greater than 10 µM.
Still for that read-out and setting: the same measure for `COc1ccc(OC)c(Nc2ncnc3c(C)c(I)sc23)c1` [Example 18, 6-Iodo-N-(2,5-dimethoxyphenyl)-7-methylthieno[3,2-d]pyrimidin-4-amine hydrochloride]: 0.071 µM.
For the molecule `COc1ccc([N+](=O)[O-])cc1Nc1ncnc2ccsc12` [Example 37, N-(2-Methoxy-5-nitrophenyl)thieno[3,2-d]pyrimidin-4-amine], the EC50 came out at 5.07 µM.
Same read-out and setting: the same measure for `COc1ccc(Oc2ccccc2)cc1Nc1ncnc2ccsc12` [Example 38, N-(2-Methoxy-5-phenoxyphenyl)thieno[3,2-d]pyrimidin-4-amine]: greater than 10 µM.
Consider `COc1ccc(Nc2nc(C)nc3sccc23)cc1` [Example 15, N-(4-Methoxyphenyl)-2-methylthieno[2,3-d]pyrimidin-4-amine], for which the EC50 is 5.74 µM.
Still for that read-out and setting: the same measure for `COc1cc(Nc2ncnc3ccsc23)cc(OC)c1OC` [Example 10, N-(3,4,5-Trimethoxyphenyl)thieno[3,2-d]pyrimidin-4-amine hydrochloride]: 0.065 µM; for `COc1ccc(OC)c(Nc2ncnc3sc(C)cc23)c1` [Example 28, N-(2,5-Dimethoxyphenyl)-6-methylthieno[2,3-d]pyrimidin-4-amine hydrochloride]: 0.422 µM.

Staying with this experiment, now noted: Homo sapiens, T47D, 48 h, T-47D cells, 48 h; read-out: Caspase activation Potency EC50 T-47D (48 h).
On to `COc1ccc(C(C)(C)C)cc1Nc1ncnc2ccsc12` [Example 40, N-(5-tert-Butyl-2-methoxyphenyl)thieno[3,2-d]pyrimidin-4-amine], for which the 50% effective concentration (EC50) was determined as 2.14 µM.
For `COc1ccc(O)c(Nc2ncnc3ccsc23)c1` [Example 42, N-(2-Hydroxy-5-methoxyphenyl)thieno[3,2-d]pyrimidin-4-amine], the 50% effective concentration (EC50) was greater than 10 µM.
As to `CCOc1ccc(OCC)c(Nc2ncnc3ccsc23)c1` [Example 36, N-(2,5-Diethoxyphenyl)thieno[3,2-d]pyrimidin-4-amine], the EC50 stood at 0.873 µM.
For the molecule `COc1ccc(OC)c(Nc2ncnc3sc(-c4ccccc4)c(C)c23)c1` [Example 16, N-(2,5-Dimethoxyphenyl)-5-methyl-6-phenylthieno[2,3-d]pyrimidin-4-amine hydrochloride], the EC50 is greater than 10 µM.
Still for that read-out and setting: the same measure for `COc1ccc(OC)c(Nc2ncnc3c(C)c(I)sc23)c1` [Example 18, 6-Iodo-N-(2,5-dimethoxyphenyl)-7-methylthieno[3,2-d]pyrimidin-4-amine hydrochloride]: 0.171 µM.
The same measure, in the same setting: the same measure for `COc1ccc([N+](=O)[O-])cc1Nc1ncnc2ccsc12` [Example 37, N-(2-Methoxy-5-nitrophenyl)thieno[3,2-d]pyrimidin-4-amine]: 5.33 µM; for `COc1ccc(Oc2ccccc2)cc1Nc1ncnc2ccsc12` [Example 38, N-(2-Methoxy-5-phenoxyphenyl)thieno[3,2-d]pyrimidin-4-amine]: greater than 10 µM.
For `COc1ccc(Nc2nc(C)nc3sccc23)cc1` [Example 15, N-(4-Methoxyphenyl)-2-methylthieno[2,3-d]pyrimidin-4-amine], the EC50 is 5.46 µM.
For the molecule `COc1cc(Nc2ncnc3ccsc23)cc(OC)c1OC` [Example 10, N-(3,4,5-Trimethoxyphenyl)thieno[3,2-d]pyrimidin-4-amine hydrochloride], the EC50 amounted to 0.072 µM.
Same read-out and setting: the same measure for `COc1ccc(OC)c(Nc2ncnc3sc(C)cc23)c1` [Example 28, N-(2,5-Dimethoxyphenyl)-6-methylthieno[2,3-d]pyrimidin-4-amine hydrochloride]: 0.542 µM.

The next experiment has as its system human colon carcinoma cell line HCT116. The experiment can be described thus: Caspase cascade activation in HCT116 cells. Format: cell-based. The note with it: Homo sapiens, HCT-116, 48 h, read-out: Caspase activation Potency EC50 HCT116 (48 h). The procedure:
as §1, §2, §3
Consider `COc1ccc(C(C)(C)C)cc1Nc1ncnc2ccsc12` [Example 40, N-(5-tert-Butyl-2-methoxyphenyl)thieno[3,2-d]pyrimidin-4-amine], for which the EC50 is greater than 10 µM.
With `COc1ccc(O)c(Nc2ncnc3ccsc23)c1` [Example 42, N-(2-Hydroxy-5-methoxyphenyl)thieno[3,2-d]pyrimidin-4-amine], the EC50 is greater than 10 µM.
Still for that read-out and setting: the same measure for `CCOc1ccc(OCC)c(Nc2ncnc3ccsc23)c1` [Example 36, N-(2,5-Diethoxyphenyl)thieno[3,2-d]pyrimidin-4-amine]: greater than 10 µM; for `COc1ccc(OC)c(Nc2ncnc3sc(-c4ccccc4)c(C)c23)c1` [Example 16, N-(2,5-Dimethoxyphenyl)-5-methyl-6-phenylthieno[2,3-d]pyrimidin-4-amine hydrochloride]: greater than 10 µM; for `COc1ccc(OC)c(Nc2ncnc3c(C)c(I)sc23)c1` [Example 18, 6-Iodo-N-(2,5-dimethoxyphenyl)-7-methylthieno[3,2-d]pyrimidin-4-amine hydrochloride]: greater than 10 µM.
Same read-out and setting: the same measure for `COc1ccc([N+](=O)[O-])cc1Nc1ncnc2ccsc12` [Example 37, N-(2-Methoxy-5-nitrophenyl)thieno[3,2-d]pyrimidin-4-amine]: greater than 10 µM; for `COc1ccc(Oc2ccccc2)cc1Nc1ncnc2ccsc12` [Example 38, N-(2-Methoxy-5-phenoxyphenyl)thieno[3,2-d]pyrimidin-4-amine]: greater than 10 µM; for `COc1ccc(Nc2nc(C)nc3sccc23)cc1` [Example 15, N-(4-Methoxyphenyl)-2-methylthieno[2,3-d]pyrimidin-4-amine]: greater than 10 µM.
For `COc1cc(Nc2ncnc3ccsc23)cc(OC)c1OC` [Example 10, N-(3,4,5-Trimethoxyphenyl)thieno[3,2-d]pyrimidin-4-amine hydrochloride], the EC50 was determined as 5 µM.
For `COc1ccc(OC)c(Nc2ncnc3sc(C)cc23)c1` [Example 28, N-(2,5-Dimethoxyphenyl)-6-methylthieno[2,3-d]pyrimidin-4-amine hydrochloride], the EC50 was greater than 10 µM.

The subject of another experiment is human hepatocellular carcinoma cell line SNU398. Nature of the experiment: Caspase cascade activation in SNU398 cells. Format: cell-based. Conditions: Homo sapiens, SNU-398, 48 h, read-out: Caspase activation Potency EC50 SNU398 (48 h). The procedure: as §1, §2, §3
For `COc1ccc(C(C)(C)C)cc1Nc1ncnc2ccsc12` [Example 40, N-(5-tert-Butyl-2-methoxyphenyl)thieno[3,2-d]pyrimidin-4-amine], the 50% effective concentration (EC50) stood at 4.85 µM.
Still for that read-out and setting: the same measure for `COc1ccc(O)c(Nc2ncnc3ccsc23)c1` [Example 42, N-(2-Hydroxy-5-methoxyphenyl)thieno[3,2-d]pyrimidin-4-amine]: greater than 10 µM.
Same read-out and setting: the same measure for `CCOc1ccc(OCC)c(Nc2ncnc3ccsc23)c1` [Example 36, N-(2,5-Diethoxyphenyl)thieno[3,2-d]pyrimidin-4-amine]: 5.18 µM.
Still for that read-out and setting: the same measure for `COc1ccc(OC)c(Nc2ncnc3sc(-c4ccccc4)c(C)c23)c1` [Example 16, N-(2,5-Dimethoxyphenyl)-5-methyl-6-phenylthieno[2,3-d]pyrimidin-4-amine hydrochloride]: greater than 10 µM; for `COc1ccc(OC)c(Nc2ncnc3c(C)c(I)sc23)c1` [Example 18, 6-Iodo-N-(2,5-dimethoxyphenyl)-7-methylthieno[3,2-d]pyrimidin-4-amine hydrochloride]: greater than 10 µM.
In the case of `COc1ccc([N+](=O)[O-])cc1Nc1ncnc2ccsc12` [Example 37, N-(2-Methoxy-5-nitrophenyl)thieno[3,2-d]pyrimidin-4-amine], the EC50 amounted to 3.57 µM.
The same measure, in the same setting: the same measure for `COc1ccc(Oc2ccccc2)cc1Nc1ncnc2ccsc12` [Example 38, N-(2-Methoxy-5-phenoxyphenyl)thieno[3,2-d]pyrimidin-4-amine]: greater than 10 µM.
Still for that read-out and setting: the same measure for `COc1ccc(Nc2nc(C)nc3sccc23)cc1` [Example 15, N-(4-Methoxyphenyl)-2-methylthieno[2,3-d]pyrimidin-4-amine]: 5.28 µM; for `COc1cc(Nc2ncnc3ccsc23)cc(OC)c1OC` [Example 10, N-(3,4,5-Trimethoxyphenyl)thieno[3,2-d]pyrimidin-4-amine hydrochloride]: 1.05 µM; for `COc1ccc(OC)c(Nc2ncnc3sc(C)cc23)c1` [Example 28, N-(2,5-Dimethoxyphenyl)-6-methylthieno[2,3-d]pyrimidin-4-amine hydrochloride]: greater than 10 µM.

In another experiment the test system is human lung cancer cell line H1299. The experiment can be described thus: Caspase cascade activation in H1299 cells. Format: cell-based. Conditions: NCI-H1299, 24 h, read-out: Caspase activation Potency EC50 H1299 (24 h). The protocol:
as §1, §2, §3
As for `COc1ccc(C(C)(C)C)cc1Nc1ncnc2ccsc12` [Example 40, N-(5-tert-Butyl-2-methoxyphenyl)thieno[3,2-d]pyrimidin-4-amine], the EC50 came out at 5.49 µM.
The same measure, in the same setting: the same measure for `COc1ccc(O)c(Nc2ncnc3ccsc23)c1` [Example 42, N-(2-Hydroxy-5-methoxyphenyl)thieno[3,2-d]pyrimidin-4-amine]: greater than 10 µM; for `CCOc1ccc(OCC)c(Nc2ncnc3ccsc23)c1` [Example 36, N-(2,5-Diethoxyphenyl)thieno[3,2-d]pyrimidin-4-amine]: 5.09 µM; for `COc1ccc(OC)c(Nc2ncnc3sc(-c4ccccc4)c(C)c23)c1` [Example 16, N-(2,5-Dimethoxyphenyl)-5-methyl-6-phenylthieno[2,3-d]pyrimidin-4-amine hydrochloride]: greater than 10 µM.
Same read-out and setting: the same measure for `COc1ccc(OC)c(Nc2ncnc3c(C)c(I)sc23)c1` [Example 18, 6-Iodo-N-(2,5-dimethoxyphenyl)-7-methylthieno[3,2-d]pyrimidin-4-amine hydrochloride]: 2.79 µM; for `COc1ccc([N+](=O)[O-])cc1Nc1ncnc2ccsc12` [Example 37, N-(2-Methoxy-5-nitrophenyl)thieno[3,2-d]pyrimidin-4-amine]: 5.06 µM.
On the same count and under the same terms, the same measure for `COc1ccc(Oc2ccccc2)cc1Nc1ncnc2ccsc12` [Example 38, N-(2-Methoxy-5-phenoxyphenyl)thieno[3,2-d]pyrimidin-4-amine]: greater than 10 µM; for `COc1ccc(Nc2nc(C)nc3sccc23)cc1` [Example 15, N-(4-Methoxyphenyl)-2-methylthieno[2,3-d]pyrimidin-4-amine]: 5.08 µM; for `COc1cc(Nc2ncnc3ccsc23)cc(OC)c1OC` [Example 10, N-(3,4,5-Trimethoxyphenyl)thieno[3,2-d]pyrimidin-4-amine hydrochloride]: 5.02 µM.
As for `COc1ccc(OC)c(Nc2ncnc3sc(C)cc23)c1` [Example 28, N-(2,5-Dimethoxyphenyl)-6-methylthieno[2,3-d]pyrimidin-4-amine hydrochloride], the EC50 is greater than 10 µM.
